From ChEMBL document CHEMBL6109078, “Pyrylium derivatives as outer membrane permeabilizers against MDR gram-negative bacteria via multi-target mode of action” (Eur J Med Chem, 2025)
Activity calls are given as the source filed them. The rule behind the calls is not given here.

Tests used:
[1] = tested on: Acinetobacter baumannii; assay: Synergistic antibacterial activity against multi-drug resistant Acinetobacter baumannii clinical isolate 1 assessed as inhibition of bacterial growth in presence of polymyxin B by checkerboard assay; assay type: functional
[2] = tested on: Escherichia coli; assay: Synergistic antibacterial activity against Escherichia coli ATCC 35218 assessed as fractional inhibitory concentration index in presence of polymyxin B by checkerboard assay; assay type: functional
[3] = tested on: Acinetobacter baumannii; assay: Antibacterial activity against multi-drug resistant Acinetobacter baumannii clinical isolate 10 assessed as inhibition of bacterial growth by CLSI protocol based method; assay type: functional
[4] = tested on: Klebsiella pneumoniae; assay: Synergistic antibacterial activity against Klebsiella pneumoniae assessed as inhibition of bacterial growth in presence of polymyxin B by checkerboard assay; assay type: functional, organism-based
[5] = tested on: Escherichia coli; assay: Synergistic antibacterial activity against Escherichia coli CG-4 expressing MCR-1 and NDM-1 assessed as inhibition of bacterial growth in presence of polymyxin B by checkerboard assay; assay type: functional
[6] = tested on: Pseudomonas aeruginosa; assay: Antibacterial activity Pseudomonas aeruginosa ATCC 27853 assessed as inhibition of bacterial growth by CLSI protocol based method; assay type: functional
[7] = tested on: Pseudomonas aeruginosa; assay: Synergistic antibacterial activity against Pseudomonas aeruginosa assessed as inhibition of bacterial growth in presence of polymyxin B by checkerboard assay; assay type: functional, organism-based
[8] = tested on: Escherichia coli; assay: Synergistic antibacterial activity against Escherichia coli ATCC 25922 assessed as inhibition of bacterial growth in presence of polymyxin B by checkerboard assay; assay type: functional
[9] = tested on: Escherichia coli; assay: Synergistic antibacterial activity against Escherichia coli ATCC 25922 assessed as fractional inhibitory concentration index in presence of polymyxin B by checkerboard assay; assay type: functional
[10] = tested on: Acinetobacter baumannii; assay: Synergistic antibacterial activity against multi-drug resistant Acinetobacter baumannii clinical isolate 5 assessed as fractional inhibitory concentration index in presence of gentamycin by checkerboard assay; assay type: functional
[11] = tested on: Escherichia coli; assay: Synergistic antibacterial activity against Escherichia coli ATCC 25922 assessed as fractional inhibitory concentration index in presence of amikacin by checkerboard assay; assay type: functional
[12] = tested on: Acinetobacter baumannii; assay: Synergistic antibacterial activity against multi-drug resistant Acinetobacter baumannii clinical isolate 14 assessed as inhibition of bacterial growth in presence of polymyxin B by checkerboard assay; assay type: functional
[13] = tested on: Acinetobacter baumannii; assay: Synergistic antibacterial activity against multi-drug resistant Acinetobacter baumannii clinical isolate 43 assessed as fractional inhibitory concentration index in presence of gentamycin by checkerboard assay; assay type: functional
[14] = tested on: Escherichia coli; assay: Synergistic antibacterial activity against Escherichia coli CG-4 expressing MCR-1 and NDM-1 assessed as fractional inhibitory concentration index in presence of […] by checkerboard assay; assay type: functional
[15] = tested on: Escherichia coli; assay: Synergistic antibacterial activity against multi-drug resistant Escherichia coli clinical isolate 1 assessed as fractional inhibitory concentration index in presence of gentamycin by checkerboard assay; assay type: functional
[16] = tested on: Acinetobacter baumannii; assay: Synergistic antibacterial activity against multi-drug resistant Acinetobacter baumannii clinical isolate 1 assessed as fractional inhibitory concentration index in presence of amikacin by checkerboard assay; assay type: functional
[17] = tested on: Acinetobacter baumannii; assay: Antibacterial activity against multi-drug resistant Acinetobacter baumannii clinical isolate 4 assessed as inhibition of bacterial growth by CLSI protocol based method; assay type: functional
[18] = tested on: Acinetobacter baumannii; assay: Synergistic antibacterial activity against multi-drug resistant Acinetobacter baumannii clinical isolate 14 assessed as fractional inhibitory concentration index in presence of amikacin by checkerboard assay; assay type: functional
[19] = tested on: Bacteria; assay: Binding affinity to His-tagged LptA (unknown origin) extracted from Escherichia coli BL21 (DE3) cells by BLI analysis
[20] = tested on: Escherichia coli; assay: Synergistic antibacterial activity against Escherichia coli CG-4 expressing MCR-1 and NDM-1 assessed as fractional inhibitory concentration index in presence of polymyxin B by checkerboard assay; assay type: functional
[21] = tested on: Escherichia coli; assay: Synergistic antibacterial activity against Escherichia coli ATCC 35218 assessed as inhibition of bacterial growth by measuring polymyxin B MIC by checkerboard assay; assay type: functional
[22] = tested on: Acinetobacter baumannii; assay: Synergistic antibacterial activity against multi-drug resistant Acinetobacter baumannii clinical isolate 5 assessed as inhibition of bacterial growth by measuring polymyxin B MIC by checkerboard assay; assay type: functional
[23] = tested on: Escherichia coli; assay: Synergistic antibacterial activity against Escherichia coli CG-4 expressing MCR-1 and NDM-1 assessed as inhibition of bacterial growth by measuring polymyxin B MIC by checkerboard assay; assay type: functional
[24] = tested on: Acinetobacter baumannii; assay: Antibacterial activity against multi-drug resistant Acinetobacter baumannii clinical isolate 5 assessed as inhibition of bacterial growth by CLSI protocol based method; assay type: functional
[25] = tested on: Escherichia coli; assay: Antibacterial activity against Escherichia coli ATCC 25922 assessed as inhibition of bacterial growth by CLSI protocol based method; assay type: functional
[26] = tested on: Escherichia coli; assay: Antibacterial activity against Escherichia coli ATCC 25922 assessed as inhibition of bacterial growth by measuring decrease in bacterial count at 6.25 to 50 microg/ml measured after 12 hrs by time-kill kinetics analysis; assay type: functional; settings: dose 6.25-50 µg/ml
[27] = tested on: Acinetobacter baumannii; assay: Synergistic antibacterial activity against Acinetobacter baumannii ATCC 19606 assessed as fractional inhibitory concentration index in presence of amikacin by checkerboard assay; assay type: functional
[28] = tested on: Escherichia coli; assay: Synergistic antibacterial activity against multi-drug resistant Escherichia coli clinical isolate 1 assessed as fractional inhibitory concentration index in presence of polymyxin B by checkerboard assay; assay type: functional
[29] = tested on: Pseudomonas aeruginosa; assay: Synergistic antibacterial activity against Pseudomonas aeruginosa assessed as inhibition of bacterial growth in presence of aminoglycoside by checkerboard assay; assay type: functional, organism-based
[30] = tested on: Acinetobacter baumannii; assay: Antibacterial activity against multi-drug resistant Acinetobacter baumannii clinical isolate 51 assessed as inhibition of bacterial growth by CLSI protocol based method; assay type: functional
[31] = tested on: Klebsiella pneumoniae; assay: Synergistic antibacterial activity against Klebsiella pneumoniae assessed as inhibition of bacterial growth in presence of aminoglycoside by checkerboard assay; assay type: functional, organism-based
[32] = tested on: Klebsiella pneumoniae; assay: Antibacterial activity against Klebsiella pneumoniae ATCC 700603 assessed as inhibition of bacterial growth by CLSI protocol based method; assay type: functional
[33] = tested on: Escherichia coli; assay: Synergistic antibacterial activity against multi-drug resistant Escherichia coli clinical isolate 1 assessed as inhibition of bacterial growth in presence of polymyxin B by checkerboard assay; assay type: functional
[34] = tested on: Escherichia coli; assay: Antibacterial activity against ESBL positive Escherichia coli ATCC 35218 assessed as inhibition of bacterial growth by CLSI protocol based method; assay type: functional
[35] = tested on: Pseudomonas aeruginosa; assay: Antibacterial activity Pseudomonas aeruginosa PAO1 assessed as inhibition of bacterial growth by CLSI protocol based method; assay type: functional
[36] = tested on: Acinetobacter baumannii; assay: Synergistic antibacterial activity against Acinetobacter baumannii ATCC 19606 assessed as inhibition of bacterial growth in presence of polymyxin B by checkerboard assay; assay type: functional
[37] = tested on: Acinetobacter baumannii; assay: Synergistic antibacterial activity against Acinetobacter baumannii ATCC 19606 assessed as fractional inhibitory concentration index in presence of polymyxin B by checkerboard assay; assay type: functional
[38] = tested on: Acinetobacter baumannii; assay: Synergistic antibacterial activity against multi-drug resistant Acinetobacter baumannii clinical isolate 43 assessed as inhibition of bacterial growth by measuring polymyxin B MIC by checkerboard assay; assay type: functional
[39] = tested on: Acinetobacter baumannii; assay: Synergistic antibacterial activity against multi-drug resistant Acinetobacter baumannii clinical isolate 5 assessed as fractional inhibitory concentration index in presence of polymyxin B by checkerboard assay; assay type: functional
[40] = tested on: Klebsiella pneumoniae; assay: Antibacterial activity against Klebsiella pneumoniae BAA ATCC 1706 assessed as inhibition of bacterial growth by CLSI protocol based method; assay type: functional
[41] = tested on: Escherichia coli; assay: Synergistic antibacterial activity against multi-drug resistant Escherichia coli clinical isolate 1 assessed as fractional inhibitory concentration index in presence of amikacin by checkerboard assay; assay type: functional
[42] = tested on: Acinetobacter baumannii; assay: Synergistic antibacterial activity against multi-drug resistant Acinetobacter baumannii clinical isolate 1 assessed as fractional inhibitory concentration index in presence of gentamycin by checkerboard assay; assay type: functional

Compound: CCN(CC)c1ccc(/C=C/c2cc(C(C)(C)C)[o+]c(C(C)(C)C)c2)cc1.O=S(=O)([O-])C(F)(F)F
- MIC [1]: 1.56 µg/mL
- fractional inhibitory concentration index (FICI) [2]: 0.375
- MIC [3]: 12.5 µg/mL
- Activity [4]: inactive
- MIC [5]: 3.13 µg/mL
- MIC [6]: > 100 µg/mL
- Activity [7]: inactive
- MIC [8]: 1.56 µg/mL
- fractional inhibitory concentration index (FICI) [9]: 0.266
- fractional inhibitory concentration index (FICI) [10]: 0.125
- fractional inhibitory concentration index (FICI) [11]: 0.125
- MIC [12]: 1.56 µg/mL
- fractional inhibitory concentration index (FICI) [13]: 0.125
- fractional inhibitory concentration index (FICI) [14]: 0.125
- fractional inhibitory concentration index (FICI) [15]: 0.125
- fractional inhibitory concentration index (FICI) [16]: 0.125
- MIC [17]: 12.5 µg/mL
- fractional inhibitory concentration index (FICI) [18]: 0.125
- Activity [19]: Dose-dependent-effect
- fractional inhibitory concentration index (FICI) [20]: 0.375
- MIC ([21]; Escherichia coli, ATCC 35218, read-out: MIC): 0.013 µg/mL
- MIC [22]: 0.003 µg/mL
- MIC [23]: 0.78 µg/mL
- MIC [24]: 12.5 µg/mL
- MIC [25]: 6.25 µg/mL
- Activity [26]: <6 log10CFU/ml
- fractional inhibitory concentration index (FICI) [27]: 0.125
- fractional inhibitory concentration index (FICI) [28]: 0.031
- Activity [29]: inactive
- MIC [30]: 12.5 µg/mL
- Activity [31]: inactive
- MIC [32]: > 100 µg/mL
- MIC [33]: 3.12 µg/mL
- MIC [34]: 6.25 µg/mL
- MIC [35]: > 100 µg/mL
- MIC [36]: 0.78 µg/mL
- fractional inhibitory concentration index (FICI) [37]: 0.188
- MIC [38]: 1 10^-4 ug/ml
- fractional inhibitory concentration index (FICI) [39]: 0.188
- MIC [40]: 12.5 µg/mL
- fractional inhibitory concentration index (FICI) [41]: 0.125
- fractional inhibitory concentration index (FICI) [42]: 0.125

Compound: CC(C)(C)c1cc(/C=C/c2ccc(N3CCCC3)cc2)cc(C(C)(C)C)[o+]1.O=S(=O)([O-])C(F)(F)F
- MIC [1]: 3.12 µg/mL
- fractional inhibitory concentration index (FICI) [2]: 0.375
- MIC [3]: 6.25 µg/mL
- Activity [4]: inactive
- MIC [5]: 0.78 µg/mL
- MIC [6]: > 100 µg/mL
- Activity [7]: inactive
- MIC [8]: 1.56 µg/mL
- fractional inhibitory concentration index (FICI) [9]: 0.156
- fractional inhibitory concentration index (FICI) [10]: 0.125
- fractional inhibitory concentration index (FICI) [11]: 0.125
- MIC [12]: 1.56 µg/mL
- fractional inhibitory concentration index (FICI) [13]: 0.125
- fractional inhibitory concentration index (FICI) [14]: 0.125
- fractional inhibitory concentration index (FICI) [15]: 0.125
- fractional inhibitory concentration index (FICI) [16]: 0.125
- MIC [17]: 12.5 µg/mL
- fractional inhibitory concentration index (FICI) [18]: 0.125
- Activity [19]: Dose-dependent-effect
- fractional inhibitory concentration index (FICI) [20]: 0.188
- MIC [21]: 63 10^-4 ug/ml
- MIC [22]: 0.003 µg/mL
- MIC [23]: 0.39 µg/mL
- MIC [24]: 6.25 µg/mL
- MIC [25]: 12.5 µg/mL
- Activity [26]: <6 log10CFU/ml
- fractional inhibitory concentration index (FICI) [27]: 0.125
- fractional inhibitory concentration index (FICI) [28]: 0.063
- Activity [29]: inactive
- MIC [30]: 12.5 µg/mL
- Activity [31]: inactive
- MIC [32]: > 100 µg/mL
- MIC [33]: 6.25 µg/mL
- MIC [34]: 6.25 µg/mL
- MIC [35]: > 100 µg/mL
- MIC [36]: 1.56 µg/mL
- fractional inhibitory concentration index (FICI) [37]: 0.156
- MIC [38]: 1 10^-4 ug/ml
- fractional inhibitory concentration index (FICI) [39]: 0.313
- MIC [40]: > 100 µg/mL
- fractional inhibitory concentration index (FICI) [41]: 0.125
- fractional inhibitory concentration index (FICI) [42]: 0.125
